For two compounds, Activity and IC50 results are on record in ChEMBL document CHEMBL1142447, “Insights into the mechanism of Na+,K+-ATPase inhibition by 2-methoxy-3,8,9-trihydroxy coumestan” (Bioorg Med Chem, 2008).

As a reminder, the IC50 is the concentration at which inhibition is half-maximal.

The species named for assay [1] is Rattus norvegicus. Description: Inhibition of rat kidney Na(+)/K(+) ATPase assessed as enzyme activity at 1 mM after 2 hrs by Fiske and Subbarow method relative to control. Also on record: scale not given: the % may be the effect or the level left.
Assay [2] is filed under the species Rattus norvegicus. Description: Inhibition of rat kidney Na(+)/K(+) ATPase assessed as enzyme activity at 1 mM after 2 hrs by Fiske and Subbarow method relative to control in presence of 500 uM beta mercaptoethanol. More on the design: scale not given: the % may be the effect or the level left.
For assay [3], the species on record is Rattus norvegicus. Description: Inhibition of rat kidney Na(+)/K(+) ATPase assessed as enzyme activity at 1 mM after 2 hrs by Fiske and Subbarow method relative to control in presence of 1 mM cysteine. More on the design: scale not given: the % may be the effect or the level left.
The species entered for assay [4] is Rattus norvegicus. Description: Inhibition of rat kidney Na(+)/K(+) ATPase at 1 mM after 2 hrs by Fiske and Subbarow method in presence of DTT.
The nature of assay [5]: Inhibition of rat kidney Na(+)/K(+) ATPase.
The species entered for assay [6] is Rattus norvegicus. Description: Inhibition of rat kidney Na(+)/K(+) ATPase assessed as enzyme activity at 30 uM after 2 hrs by Fiske and Subbarow method relative to control. More on the design: scale not given: the % may be the effect or the level left.
Assay [7] can be described thus: Inhibition of rat gastrocnemius Ca2+/Mg2+ ATPase after 2 hrs. In kind it is tissue-based.
The nature of assay [8]: Inhibition of rat stomach H(+)/K(+) ATPase after 2 hrs by Fiske and Subbarow method. In kind it is tissue-based.
The species named for assay [9] is Rattus norvegicus. Description: Inhibition of rat kidney Na(+)/K(+) ATPase assessed as enzyme activity at 30 uM after 2 hrs by Fiske and Subbarow method relative to control in presence of 1 mM cysteine. More on the design: scale not given: the % may be the effect or the level left.
Assay [10] is filed under the species Rattus norvegicus. Description: Inhibition of rat kidney Na(+)/K(+) ATPase assessed after 2 hrs by Fiske and Subbarow method in presence of DTT.
The species entered for assay [11] is Rattus norvegicus. Description: Inhibition of rat kidney Na(+)/K(+) ATPase assessed as enzyme activity preincubated for 30 mins after 2 hrs by Fiske and Subbarow method in presence of beta mercaptoethanol.
The species named for assay [12] is Rattus norvegicus. Description: Inhibition of Na(+)/K(+) ATPase in rat kidney assessed as decrease in free sulfydryl groups level at 30 uM after 1 hr by Ellman's method. On the technique in general: Ellman's reagent forms a yellow product with free thiols.
For assay [13], the species on record is Rattus norvegicus. Description: Inhibition of rat kidney Ca2+/Mg2+ ATPase assessed after 2 hrs by Fiske and Subbarow method in presence of DTT.
Assay [14] is filed under the species Rattus norvegicus. Description: Inhibition of rat kidney Na(+)/K(+) ATPase assessed as enzyme activity at 30 uM after 2 hrs by Fiske and Subbarow method relative to control in presence of 500 uM beta mercaptoethanol. More on the design: scale not given: the % may be the effect or the level left.

The structures appear in SMILES notation. The source made the active and inactive calls. The calls are words filed in the database; no cut-off is given here.

Turning to `C[C@@H]1O[C@@H](O[C@H]2C[C@@H](O)[C@]3(CO)[C@H]4[C@H](O)C[C@]5(C)[C@@H](C6=CC(=O)OC6)CC[C@]5(O)[C@@H]4CC[C@]3(O)C2)[C@H](O)[C@H](O)[C@H]1O`, the results for the Activity in assay [1], in assay [2] and in assay [3] were 11.6%, 10.5% and 12%, respectively. In assay [4], the outcome was Active.
Take `COc1cc2c(cc1O)oc(=O)c1c3cc(O)c(O)cc3oc21`: the IC50 came out at 3 µM in assay [5], 10 µM in assay [7] and 30 µM in assay [8]. Besides, the results for the Activity in assay [6], in assay [9] and in [14] were 6.9%, 75.5% and 81.3%, respectively. Moreover, the result in assay [10] and in assay [13] was inactive. For the same compound, the outcome in [11] and in [12] was Active.
